# Patent US7622269B2, “Methods of screening tyramine- and octopamine-expressing cells for compounds and compositions having potential insect control activity” (Tyratech, Inc., priority 2004, dated 2009)
# Values joined by “and” are separate entries in the source; they are usually repeats but may differ in a detail not shown here. Equal values may be shown once.
# Legend:
# Pa oa1 [1] = biological target: T1, Pa oa1 (Periplaneta americana, UniProt Q7YWB7); assay: Competitive binding against 3H-yohimbine, Pa oa1 membranes
# Pa oa1 [2] = biological target: T1, Pa oa1; assay: cAMP levels in HEK-293 cells expressing Pa oa1; format: cell-based
# Protocol: (§1) Twenty-four hours before cell treatment, about 300,000 HEK-293 cells are plated in about 1 ml media with about 0.8 mg G418/ml into multi-well dishes (e.g., 12-well, 4.5 cm^2). For cell treatment, the media is aspirated and about 1 ml PBS with about 300 μM IBMX and the test reagent is added. […] Cells are incubated with about 70% ethanol for about 1 h at about −20° C. The cellular debris is centrifuged and then the supernatant is removed and lyophilized to dryness. The amount of cAMP in the extract is determined by using a cAMP binding protein from the ^3H-cAMP Biotrak assay system (Amersham Biosciences) as per the manufacturer's instructions. To test the effects of calcium chelation on cAMP levels, the cells are incubated with about […] BAPTA/AM (Calbiochem Biochemicals, La Jolla, Calif.) for about 10 min before the addition of the test reagents.
# (§2) To determine cAMP levels in cells, about 24-hours before cell treatment, 300,000 HEK-293 cells are plated in 1 mL media with 0.8 mg G418/mL into multi-dishes (4.5 cm2). For cell treatment, the media is aspirated and 1 mL PBS with 300 μM IBMX and the test reagent is added. Cells are incubated at 37° C. for 20 min, and the PBS is then aspirated. Cells are incubated with 70% ethanol for 1 hour at −20° C. The cellular debris is centrifuged and then the supernatant is removed and lyophilized to dryness. The amount of cAMP in the extract is determined by using a cAMP binding protein from the ^3H-cAMP Biotrak assay system (Amersham Biosciences, Piscataway, N.J.) as per the manufacturer's instructions.
# Pa oa1 [3] = biological target: T1, Pa oa1; assay: Intracellular calcium (Fura-2) in HEK-293 cells expressing Pa oa1; format: cell-based
# control HEK-293 cells [4] = assay: cAMP levels in control HEK-293 cells transfected with pCDNA3 without insert; format: cell-based, human
# Protocol: as §1
# To determine which second messenger signaling pathways octopamine could affect through the Pa oa1 receptor, HEK-293 cells are stably transfected with pCDNA3-Pa oa1 or pCDNA3 without an insert as a control.
# control HEK-293 cells [5] = assay: Intracellular calcium in control HEK-293 cells transfected with empty pCDNA3; format: cell-based, human
# OAMB [6] = biological target: T2, OAMB (Drosophila melanogaster, UniProt Q7JQF1, L268I/L487I/L521I/T180I); assay: Intracellular calcium (Fura-2) in HEK-293 cells expressing OAMB; conditions: 10 μM
# Protocol: Cells are collected by scraping and are suspended at about 750,000 cells/ml in HBSS with about 5 μM Fura-2 AM (Sigma-Aldrich).
# OAMB [7] = biological target: T2, OAMB; assay: biochemical; format: binding; design: Oligonucleotides designed to amplify the open reading frame of Drosophila melanogaster OAMB; expressed in transfected cells
# OAMB [8] = biological target: T2, OAMB; assay: cAMP levels in HEK-293 cells expressing OAMB; format: cell-based; design: Oligonucleotides designed to amplify the open reading frame of Drosophila melanogaster OAMB; expressed in transfected cells; conditions: 10 μM
# Protocol: as §2
# T1 sequence (Q7YWB7 entry or part of it): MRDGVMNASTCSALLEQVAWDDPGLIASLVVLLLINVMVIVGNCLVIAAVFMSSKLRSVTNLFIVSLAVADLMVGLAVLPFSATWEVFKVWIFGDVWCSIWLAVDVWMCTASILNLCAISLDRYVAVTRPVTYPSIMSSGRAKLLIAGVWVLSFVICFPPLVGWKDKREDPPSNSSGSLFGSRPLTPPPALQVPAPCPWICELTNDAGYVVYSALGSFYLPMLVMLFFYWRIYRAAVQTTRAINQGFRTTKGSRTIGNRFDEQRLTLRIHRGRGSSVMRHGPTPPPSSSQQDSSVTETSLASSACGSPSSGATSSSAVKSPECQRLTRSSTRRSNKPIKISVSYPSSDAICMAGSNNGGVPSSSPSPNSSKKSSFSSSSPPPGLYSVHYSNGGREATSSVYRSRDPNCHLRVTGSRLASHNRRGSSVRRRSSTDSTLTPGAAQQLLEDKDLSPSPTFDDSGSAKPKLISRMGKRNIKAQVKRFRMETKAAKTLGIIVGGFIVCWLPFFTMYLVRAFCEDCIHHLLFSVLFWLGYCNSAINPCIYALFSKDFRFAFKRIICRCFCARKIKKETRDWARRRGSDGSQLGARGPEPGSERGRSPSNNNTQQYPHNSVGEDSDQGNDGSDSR
# T2 sequence (Q7JQF1 other isoform, or with tags, fused parts or gaps T180I/L268I/L487I/L524I): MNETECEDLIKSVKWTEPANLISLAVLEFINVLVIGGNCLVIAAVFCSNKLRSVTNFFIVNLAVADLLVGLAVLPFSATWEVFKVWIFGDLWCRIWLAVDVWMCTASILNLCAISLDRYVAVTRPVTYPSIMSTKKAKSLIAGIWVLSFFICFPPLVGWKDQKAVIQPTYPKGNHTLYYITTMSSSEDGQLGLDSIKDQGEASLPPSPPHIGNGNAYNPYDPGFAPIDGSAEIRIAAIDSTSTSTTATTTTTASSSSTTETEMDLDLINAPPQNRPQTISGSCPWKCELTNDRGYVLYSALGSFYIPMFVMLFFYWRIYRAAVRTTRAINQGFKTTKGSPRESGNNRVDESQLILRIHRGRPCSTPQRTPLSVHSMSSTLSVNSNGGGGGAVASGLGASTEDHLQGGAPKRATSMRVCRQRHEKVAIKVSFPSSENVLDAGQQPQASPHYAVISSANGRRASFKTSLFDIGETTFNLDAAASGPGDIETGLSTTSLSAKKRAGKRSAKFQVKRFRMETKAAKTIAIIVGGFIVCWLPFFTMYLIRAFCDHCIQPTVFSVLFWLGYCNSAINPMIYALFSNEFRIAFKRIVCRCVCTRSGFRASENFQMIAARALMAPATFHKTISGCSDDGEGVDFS
smiles,measurement,setting,value
"NCC(O)c1ccc(O)cc1 (racemic) [Octopamine, DL-octopamine]",Ki,"Pa oa1 [1]; Table B, 4 nM 3H-yohimbine",13.3 µM
same,Ki,Pa oa1 [1]; about 2 nM 3H-yohimbine,~13.3 µM and 13.3 µM
same,affinity of octopamine higher than tyramine,Pa oa1 [1]; Pa oa1,about 2.3 fold
same,effect on level of cAMP,Pa oa1 [2]; 10 μM,increases the level of cAMP
same,EC50,"Pa oa1 [2]; 300 μM IBMX, read-out: EC50 for increase in cAMP",~1.62 µM
same,fold induction at 100 µM,"Pa oa1 [2]; HEK293, 20 min, about 100 μM amine, read-out: increase in cAMP",~911
same,cAMP concentration,"Pa oa1 [2]; about 10 nM amine, basal about 0.48 pmol cAMP",about 1.2 pmol cAMP
same,lowest concentration that increases intracellular calcium levels,Pa oa1 [3],about 10 nM
same,effect on level of [Ca2+]i,Pa oa1 [3]; 10 μM,increases the level [Ca^2+]i
same,effect on intracellular calcium,Pa oa1 [3]; about 100 nM,a rapid increase in intracellular calcium is detected
same,changes in cAMP level,"control HEK-293 cells [4]; 10 μM, empty vector",insignificant changes
same,effect on cAMP levels,control HEK-293 cells [4]; up to about 100 μM,neither DL-octopamine nor tyramine at concentrations up to about 100 μM has significant effects on cAMP levels
same,changes in [Ca2+],"control HEK-293 cells [5]; 10 μM, empty vector",insignificant changes
same,effect on intracellular calcium levels,control HEK-293 cells [5]; about 10 μM,Neither about 10 μM octopamine nor about 10 μM tyramine modulates intracellular calcium levels
same,effect on level of [Ca2+]i,OAMB [6],increases the level [Ca^2+]i
same,Ki,OAMB [7],8.2 µM
same,affinity of octopamine higher than tyramine,OAMB [7]; OAMB,about 4.1 fold
same,effect on level of cAMP,OAMB [8],increases the level of cAMP
